Experimental data published in paper PMC9352109, “Novel silkworm (Bombyx mori) sulfotransferase swSULT ST3 is involved in metabolism of polyphenols from mulberry leaves” (PLoS ONE, 2022).

Molecular target: T1, AKR2E8 (Bombyx mori, UniProt A0A8D5RRY4)
T1 sequence (A0A8D5RRY4 1-331 limits assumed): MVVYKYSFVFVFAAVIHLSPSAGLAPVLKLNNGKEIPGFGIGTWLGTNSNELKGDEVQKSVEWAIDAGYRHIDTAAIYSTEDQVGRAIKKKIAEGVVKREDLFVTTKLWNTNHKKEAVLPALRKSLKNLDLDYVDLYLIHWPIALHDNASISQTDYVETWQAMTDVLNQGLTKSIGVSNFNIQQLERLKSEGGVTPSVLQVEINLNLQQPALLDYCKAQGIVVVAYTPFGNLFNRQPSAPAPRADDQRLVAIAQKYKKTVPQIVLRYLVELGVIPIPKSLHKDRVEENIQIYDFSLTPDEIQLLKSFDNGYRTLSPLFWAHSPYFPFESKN
Assay: NADPH-linked benzaldehyde reduction
Assay type: biochemical
Details: 0.1 mM NADPH, 25 μM benzaldehyde, 0.1 M potassium phosphate pH 7.4
Description: NADPH-linked benzaldehyde reduction on AKR2E8

Structure (SMILES)	IC50 [nM]
O=c1c(-c2ccc(O)cc2)coc2cc(O)cc(O)c12 [Genistein]	18 ± 1.4
Oc1ccc(/C=C/c2cc(O)cc(O)c2)cc1 [Resveratrol]	550 ± 23
O=c1cc(-c2ccc(O)cc2)oc2cc(O)cc(O)c12 [Apigenin]	170 ± 10
O=c1c(O)c(-c2ccc(O)cc2)oc2cc(O)cc(O)c12 [Kaempferol]	460 ± 120
O=c1c(O)c(-c2ccc(O)c(O)c2)oc2cc(O)cc(O)c12 [Quercetin]	65 ± 1.8
O=c1c(-c2ccc(O)cc2)coc2cc(O)ccc12 [Daidzein]	34 ± 2.7
